Our source for the CC50 values is publication PMC6792352, “Limited Chemical Structural Diversity Found to Modulate Thyroid Hormone Receptor in the Tox21 Chemical Library” (Environmental Health Perspectives, 2019).

Structures can show the parent of a compound that is named as a salt.

This data set in a line: in vitro. The note with it: rat, gh3-tre-luc cells.

As for `C=CCC1=C(C)[C@@H](OC(=O)[C@@H]2[C@@H](C=C(C)C)C2(C)C)CC1=O` [S-Bioallethrin], the half-maximal cytotoxic concentration (CC50) – broadly, the concentration giving 50% cytotoxicity – at 24 h (AC50 (uM) modified / 1000) was found to be 32.6 µM.

`CC(C)(C)C1CCCCC1O` (stereo not shown) [2-tert-Butylcyclohexanol] registered a CC50 at 24 h (AC50 (uM) modified / 1000) above 90 µM. The same measure, in the same setting: the same measure for `Cc1cc(C(=O)NNCc2ccccc2)no1` [Isocarboxazid]: above 20 µM; for `CCCSS/C(CCO)=C(/C)N(C=O)Cc1cnc(C)nc1N` [Prosultiamine]: 22.5 µM; for `CCN(CC)CCc1nc(-c2ccccc2)no1` [Oxalamine citrate]: above 20 µM.

For the setting “AC50 (uM) modified / 1000”, `OC[C@H]1O[C@@H](n2cnc3c(O)ncnc32)[C@H](O)[C@@H]1O` [Inosine] came in with a CC50 at 24 h above 50 µM. Turning to `O=Cc1ccc(C(=O)O)cc1` [4-Carboxybenzaldehyde], the CC50 at 24 h (AC50 (uM) modified / 1000) is above 90 µM. On the same count and under the same terms, the same measure for `FC(F)(F)C(=NOCC1OCCO1)c1ccc(Cl)cc1` [Fluxofenim]: above 90 µM; for `COc1nc(C)nc(NC(=O)NS(=O)(=O)c2ccccc2Cl)n1` [Chlorsulfuron]: above 90 µM. The same measure, in the same setting: to `CCC1(CCC(C)C)C(=O)NC(=O)NC1=O` [Amobarbital] belongs above 90 µM. On the same count and under the same terms, to `C=C[C@@H](C)CCC=C(C)C` [(S)-Citronellene] belongs above 90 µM; to `O=[N+]([O-])c1ccc2ncccc2c1` [6-Nitroquinoline], above 90 µM. With `CC(Cl)COP(=O)(OCC(C)Cl)OCC(C)Cl` (stereo not shown) [Tris(2-chloropropyl) phosphate], the half-maximal cytotoxic concentration (CC50) at 24 h (AC50 (uM) modified / 1000, Tox21_110001=Tox21_302421, viability, 1 nM T3 present, 24 h) is above 90 µM. Under “AC50 (uM) modified / 1000”, `CCOC(=O)c1nc(C(Cl)(Cl)Cl)n(-c2ccc(Cl)cc2Cl)n1` [Fenchlorazole-ethyl] came in with a CC50 at 24 h of 52.1 µM. With `Cc1ccc(/C(=C\CN2CCCC2)c2ccccn2)cc1` [Triprolidine hydrochloride monohydrate], the CC50 at 24 h (AC50 (uM) modified / 1000) turned out to be 58.4 µM. Still for that read-out and setting: the same measure for `CCN(CC)CCNC(=O)COc1ccc(OC)cc1` [Mefexamide hydrochloride]: above 50 µM; for `C/C=C(\C)C(=O)OC/C=C(\C)CCC=C(C)C` [Geranyl tiglate]: above 90 µM; for `Cc1nnc2n1-c1ccc(Cl)cc1C(c1ccccc1Cl)=NC2` [Triazolam]: above 50 µM. Same read-out and setting: to `O=C(Cl)C(Cl)(Cl)Cl` [Trichloroacetyl chloride] belongs above 90 µM; to `O=S(=O)(Oc1ccc(Cl)cc1)c1ccccc1` [Fenson], above 90 µM.

Consider `CCC(N)(CO)CO` [2-Amino-2-ethyl-1,3-propanediol], for which the CC50 at 24 h (AC50 (uM) modified / 1000) was above 90 µM.

Regarding `Cc1ccc(C(C)(C)c2ccc(C)cc2)cc1` [2,2-Di-4-tolylpropane], the CC50 at 24 h (AC50 (uM) modified / 1000) was above 50 µM. Still for that read-out and setting: to `O=C1c2ccccc2C(=O)C1c1ccccc1` [Phenindione] belongs above 20 µM; to `C[N+](C)(C)CC[N+]1(C)Cc2c(Cl)c(Cl)c(Cl)c(Cl)c2C1` [Chlorisondamine chloride], above 50 µM; to `CCNCC(O)c1cccc(O)c1` (stereo not shown) [Etilefrine hydrochloride], above 20 µM. Same read-out and setting: to `CC(C)(C)S` [2-Methyl-2-propanethiol] belongs above 90 µM. In turn, `C[C@@H]1CN(CCCn2c3ccccc3c3ccccc32)C[C@H](C)N1` [Rimcazole dihydrochloride] gave a CC50 at 24 h (AC50 (uM) modified / 1000) of 7.99 µM.

Regarding `NS(=O)(=O)c1ccc(Cl)c(S(N)(=O)=O)c1` [Clofenamide], the CC50 at 24 h (AC50 (uM) modified / 1000) is above 50 µM. Molecule `O=S(=O)(Oc1ccc(Cl)cc1)c1ccc(Cl)cc1` [Chlorfenson] showed a CC50 at 24 h (AC50 (uM) modified / 1000) above 90 µM. The same measure, in the same setting: the same measure for `CCCCCCCCCCC` [Undecane]: above 90 µM. The same measure, in the same setting: the same measure for `CC(=O)CCc1ccccc1` [Benzylacetone]: above 90 µM. On the same count and under the same terms, to `CC(C)(C)C(=O)C(Oc1ccc(Cl)cc1)n1cncn1` (stereo not shown) [Triadimefon] belongs above 90 µM.

Molecule `COC(=O)C1=C(C)NC(C)=C(C(=O)O[C@H]2CCN(Cc3ccccc3)C2)[C@H]1c1cccc([N+](=O)[O-])c1` [Barnidipine hydrochloride] gave a CC50 at 24 h (AC50 (uM) modified / 1000) of 16.3 µM. Same read-out and setting: to `O=C1Nc2ccc(Cl)cc2C(c2ccccc2)=NC1O` (stereo not shown) [Oxazepam] belongs above 80 µM; to `COc1cc(NC(=O)CC(C)=O)c(OC)cc1Cl` [4'-Chloro-2',5'-dimethoxyacetoacetanilide], above 90 µM; to `O=C1OC(=O)C2C1C1(Cl)C(Cl)=C(Cl)C2(Cl)C1(Cl)Cl` (stereo not shown) [Chlorendic anhydride], above 90 µM. Same read-out and setting: to `Cc1cn[nH]c1` [4-Methylpyrazole hydrochloride] belongs above 50 µM. `O=[N+]([O-])c1ccc(Cl)c(Cl)c1Cl` [2,3,4-Trichloronitrobenzene] yielded a CC50 at 24 h (AC50 (uM) modified / 1000, Tox21_110001=Tox21_200670, viability, 1 nM T3 present, 24 h) above 90 µM. With `O=C(O)/C=C/c1ccc(O)c(O)c1` [Caffeic acid], the cytotoxic concentration (CC50) at 24 h (AC50 (uM) modified / 1000) was above 90 µM. Still for that read-out and setting: to `CC(C)=CCC/C(C)=C/CC/C(C)=C/CO` [Farnesol] belongs 68.1 µM; to `CCCCCCCCOC(=O)c1ccc(C(=O)OCCCCCCCC)c(C(=O)OCCCCCCCC)c1` [Trioctyl trimellitate], above 90 µM; to `Cc1cc2nc(N)sc2cc1C` [2-Amino-5,6-dimethylbenzothiazole], above 90 µM.

Consider `Sc1nc(S)nc(S)n1` [Trisodium 2,4,6-trithioxo-1,3,5-triazinane-1,3,5-triide], for which, where the note is “AC50 (uM) modified / 1000”, the CC50 at 24 h is above 50 µM. On to `CC(=O)c1ccc2ccccc2c1` [2'-Acetonaphthone], for which the 50% cytotoxic concentration (CC50) at 24 h (AC50 (uM) modified / 1000) is above 90 µM. The same measure, in the same setting: to `COC(=O)c1ccccc1C(=O)c1ccc(OCCN2CCCCC2)cc1` [Pitofenone hydrochloride] belongs 42.7 µM; to `CCC1OCC(COc2ccc(Oc3ccccc3)cc2)O1` (stereo not shown) [Diofenolan], above 90 µM. Still for that read-out and setting: to `O=C(O)c1cc2ccccc2c(Cc2c(O)c(C(=O)O)cc3ccccc23)c1O` [Pamoic acid] belongs above 50 µM. `CC1COc2c(N3CCN(C)CC3)c(F)cc3c(=O)c(C(=O)O)cn1c23` (stereo not shown) [Ofloxacin] gave a CC50 at 24 h (AC50 (uM) modified / 1000) above 50 µM. On the same count and under the same terms, to `CCOc1ccc(C(C)(C)COCc2cccc(Oc3ccccc3)c2)cc1` [Etofenprox] belongs above 90 µM. As for `C[C@@H]1CC[C@H]2C(C)(C)C3CC12CC[C@@]3(C)O` (single isomer, unassigned; (+)) [(+)-Cedrol], the cytotoxic concentration (CC50) at 24 h (AC50 (uM) modified / 1000) was 71.6 µM. This lies in the double-digit micromolar range. The molecule `CNN` [Methylhydrazine sulfate] returned a CC50 at 24 h (AC50 (uM) modified / 1000) above 90 µM. Where the note is “AC50 (uM) modified / 1000”, `CN/C(=N\c1ccc(C2=NNC(=O)CC2C)cc1)NC#N` (stereo not shown) [Siguazodan] had a CC50 at 24 h above 50 µM. Same read-out and setting: the same measure for `O=C(O)c1cccc(-c2noc(-c3ccccc3F)n2)c1` [Ataluren]: above 50 µM; for `CCCOc1ccc(S(=O)(=O)N2CCN(CC)CC2)cc1-c1nc2c(CC)n(Cc3ccccn3)nc2c(=O)[nH]1` [UK-343664]: above 90 µM; for `CCCNCCC` [Dipropylamine]: above 90 µM.

Where the note is “AC50 (uM) modified / 1000”, `CO[C@@]1(NC(=O)[C@H](C(=O)O)c2ccc(O)cc2)C(=O)N2C(C(=O)O)=C(CSc3nnnn3C)CO[C@@H]21` [Moxalactam disodium] had a CC50 at 24 h above 20 µM. Still for that read-out and setting: to `Cc1ccco1` [2-Methylfuran] belongs above 90 µM; to `OCCc1ccccn1` [2-(Pyridin-2-yl)ethanol], above 90 µM. On the same count and under the same terms, to `O=c1c(-c2ccc(O)cc2)coc2cc(O)ccc12` [Daidzein] belongs above 90 µM; to `N[C@@H](CSCCCO)C(=O)O` [Fudosteine], above 50 µM. On the same count and under the same terms, to `CC(C)(OO)c1ccccc1` [Cumene hydroperoxide] belongs 79.6 µM.

Take `C[C@H]1CC[C@@H]2[C@@H](C)[C@H]3[C@H](C[C@H]4[C@@H]5CC=C6C[C@@H](O[C@@H]7O[C@H](CO)[C@H](O)[C@H](O[C@@H]8O[C@H](CO)[C@@H](O)[C@H](O)[C@H]8O)[C@H]7O[C@@H]7O[C@@H](C)[C@H](O)[C@@H](O)[C@H]7O)CC[C@]6(C)[C@H]5CC[C@]34C)N2C1` [alpha-Solanine]: the CC50 at 24 h is, setting by setting: (AC50 (uM) modified / 1000, Tox21_110001=Tox21_111132, viability, 1 nM T3 present, 24 h) 17.5 µM; (AC50 (uM) modified / 1000, Tox21_110001=Tox21_200104, viability, 1 nM T3 present, 24 h) 16.1 µM. Molecule `COc1ccc(CCC(=O)c2c(O)cc(O[C@@H]3O[C@H](CO)[C@@H](O)[C@H](O)[C@H]3O[C@@H]3O[C@@H](C)[C@H](O)[C@@H](O)[C@H]3O)cc2O)cc1O` [Neohesperidin dihydrochalcone] came in with a CC50 at 24 h (AC50 (uM) modified / 1000) above 90 µM. On the same count and under the same terms, to `CCN(CC)CCOC(=O)C(c1ccccc1)C1CCCCC1` (stereo not shown) [Drofenine hydrochloride] belongs 21.1 µM; to `CC(C)=CCC/C(C)=C/CC/C(C)=C/CCC(=O)OC/C=C(\C)CCC=C(C)C` [Gefarnate], above 50 µM; to `C=COCCCCO` [4-(Ethenyloxy)butan-1-ol], above 90 µM.

`O=C1CCCN1CCO` [1-(2-Hydroxyethyl)pyrrolidin-2-one] gave a CC50 at 24 h (AC50 (uM) modified / 1000) above 90 µM. Same read-out and setting: the same measure for `Cc1ccc(S(=O)(=O)NC(=O)NN2CC3CCC[C@@H]3C2)cc1` (stereo in doubt) [Gliclazide]: above 20 µM; for `C=CCOC(=O)C(=C)C` [Allyl methacrylate]: above 100 µM; for `OC/C(Br)=C(\Br)CO` [(2E)-2,3-Dibromo-2-butene-1,4-diol]: above 90 µM. `CC(O)COCC(C)O` (stereo not shown) [1,1'-Oxybis-2-propanol] showed a CC50 at 24 h (AC50 (uM) modified / 1000) above 90 µM. Where the note is “AC50 (uM) modified / 1000, Tox21_110001=Tox21_200022, viability, 1 nM T3 present, 24 h”, `O=[N+]([O-])c1cccc(O)c1` [3-Nitrophenol] returned a CC50 at 24 h above 90 µM.

In turn, `CCC(=O)Nc1ccc(O)cc1` [Parapropamol] came in with a CC50 at 24 h (AC50 (uM) modified / 1000) above 50 µM.

In the case of `CC(C)(C#N)C(C)(C)C#N` [Tetramethylsuccinonitrile], the CC50 at 24 h (AC50 (uM) modified / 1000, Tox21_110001=Tox21_200573, viability, 1 nM T3 present, 24 h) was above 90 µM.

As for `CCCCCCCCCCCCCCCCCC[N+](C)(C)Cc1ccccc1` [N,N-Dimethyl-N-benzyl-N-octadecylammonium chloride], for the setting “AC50 (uM) modified / 1000”, the CC50 at 24 h was determined as 11.4 µM.
